Measured values from PubChem BioAssay AID2060331 (Molecular Pharmacology Branch, DTP, NCI, 2025).
Where “and” joins values, the source holds several entries; their conditions need not be identical. Equal values may be shown once.

System: Hs578T multi-cell spheroids, viability
Assay: Anticancer human tumor Hs578T cell line growth inhibition [IpAb];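 further: drug exposure lasted 7 days before readout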
Conditions: for viability, T/C: stronger effect = lower value
Source text: Combinatorial screen of targeted agents with ipatasertib and abemaciclib in multi-cell type tumor spheroids
A high-throughput screen of multi-cell type tumor spheroids was designed to identify active combinations of targeted small molecules and ipatasertib or abemaciclib. Complex spheroids include a stromal component modeled by human endothelial cells (HUVEC) and fibroblasts modeled by human mesenchymal stem cells (MSCs). The concentration ranges selected for each drug and investigational agent were based upon clinically achievable concentrations if the clinical Cmax of the agent was known.
Compounds. The drugs and investigational agents: ipatasertib (NSC767898), abemaciclib(NSC768073), selumetinib (NSC741078), trametinib (758246), adavosertib (NSC754352), everolimus (NSC733504), sapanisertib (NSC764658), vemurafenib (NSC761431), venetoclax (NSC766270), copanlisib (NSC809693), apelisib (NSC765974), palbociblib (NSC758247), vemurafenib (NSC761431), dabrafenib (NSC764134), ravoxertinib (NSC781343), BMS-387032 (NSC767048), sotorasib (NSC818433), talazoparib (NSC767125) and afursertib (NSC778305), were obtained from the National Cancer Institute (NCI) Developmental Therapeutics Program Chemical Repository. The FDA-approved anticancer drug set is available from the NCI Developmental Therapeutics Program. […] The stock solutions were prepared in dimethyl sulfoxide (DMSO, Sigma-Aldrich, St. Louis, MO, cat. D2650) at 800-fold the tested concentration and stored at -70 degrees C prior to their use. All drugs and investigational agents were tested over a range starting from a high concentration at or near the clinical Cmax and decreasing in half-log increments. If the clinical Cmax for an agent had not been determined, the highest concentration tested was 10 microM.
NCI60 Cell Culture. NCI60 cell lines were obtained from the NCI Developmental Therapeutics Program Tumor Repository. For each lot of cells, the Repository performed Applied Biosystems AmpFLSTR Identifiler testing with PCR amplification to confirm consistency with the published Identifier STR profile for each cell line. Cells were kept in continuous culture for no more than 20 passages. The optimal seeding densities for each of the cell lines at each time point assessed were determined prior to performing the concentration response studies. Briefly, the NCI60 human tumor lines were grown as monolayers in RPMI 1640 medium supplemented with 10% FBS and 2 mmol/L L-glutamine.
An additional 9 lines were from the NCI60 cell line panel including MDA-MB-231 breast carcinoma, MDA-MB-468 breast carcinoma, MCF7 breast carcinoma, Hs578T breast carcinoma, MALME-3M melanoma, SK-MEL-2 melanoma, SK-OV-3 ovarian carcinoma, DU-145 prostate carcinoma, PC-3 prostate carcinoma, all cell lines along with major genetic alterations are listed on Table 2. Pooled donor human umbilical vein endothelial cells (HUVEC, Lonza, cat. CC-2519) and human mesenchymal stem cells (hMSC, Lonza, cat. PT-2501) were purchased from Lonza (Walkersville, MD).
PDMR cell lines were grown in complete medium (DC medium): Dulbecco's modified Eagle's medium (DMEM)/F12 supplemented with 5% fetal bovine serum (FBS), 2 mM L-glutamine, 100 U/mL penicillin and 100 µg/ml streptomycin, 0.4 µg/ml hydrocortisone, 10 ng/ml epidermal growth factor (EGF) recombinant human protein, 24 µg/mL adenine, and 0.1 mg/mL primocin. During culture from frozen stock vials, PDMR cells were cultured in the same medium containing 10 µM Y-27632 (see Table 3). The PDCs were cultured in complete DMEM/F12 media without 10 microM Y-27632 dihydrochloride for at least two passages prior to the screen. The pooled donor HUVEC and hMSC were cultured in endothelial cell growth medium 2 (PromoCell, Heidelberg, Germany, cat. C-22011) and mesenchymal stem cell growth medium 2 (PromoCell, cat. C-28009), respectively. For all experiments, HUVEC and hMSC were used at passages </=5.
[…]

[1] = curve of first compound, second compound 0.01 µM
[2] = curve of first compound, second compound 0.0316 µM
[3] = curve of first compound, second compound 0.1 µM
[4] = curve of first compound, second compound 0.316 µM
[5] = curve of first compound, second compound 1 µM
[6] = second compound 0.01 µM, first compound 0.0316 µM
[7] = second compound 0.01 µM, first compound 0.1 µM
[8] = second compound 0.0316 µM, first compound 0.0316 µM
[9] = second compound 0.0316 µM, first compound 0.1 µM
[10] = second compound 0.1 µM, first compound 0.0316 µM
[11] = second compound 0.1 µM, first compound 0.1 µM
[12] = second compound 0.316 µM, first compound 0.0316 µM
[13] = second compound 0.316 µM, first compound 0.1 µM
[14] = second compound 1 µM, first compound 0.0316 µM
[15] = second compound 1 µM, first compound 0.1 µM

Cn1ncnc1[C@H]1c2n[nH]c(=O)c3cc(F)cc(c23)N[C@@H]1c1ccc(F)cc1 + CCN1CCN(Cc2ccc(Nc3ncc(F)c(-c4cc(F)c5nc(C)n(C(C)C)c5c4)n3)nc2)CC1
IC50 [1]: > 0.1 µM | IC50 [2]: > 0.1 µM | IC50 [3]: > 0.1 µM | IC50 [4]: > 0.1 µM | IC50 [5]: > 0.1 µM | viability, T/C (second compound 0.01 µM, first compound 0.000316 µM): 101% | viability, T/C (second compound 0.01 µM, first compound 0.001 µM): 100% | viability, T/C (second compound 0.01 µM, first compound 0.00316 µM): 95.2% | viability, T/C (second compound 0.01 µM, first compound 0.01 µM): 88.1% | viability, T/C [6]: 93.4% | viability, T/C [7]: 88.4% | viability, T/C (second compound 0.0316 µM, first compound 0.000316 µM): 99.3% | viability, T/C (second compound 0.0316 µM, first compound 0.001 µM): 94.3% | viability, T/C (second compound 0.0316 µM, first compound 0.00316 µM): 91.5% | viability, T/C (second compound 0.0316 µM, first compound 0.01 µM): 93% | viability, T/C [8]: 87.3% | viability, T/C [9]: 84.8% | viability, T/C (second compound 0.1 µM, first compound 0.000316 µM): 84.9% | viability, T/C (second compound 0.1 µM, first compound 0.001 µM): 87.8% | viability, T/C (second compound 0.1 µM, first compound 0.00316 µM): 86.8% | viability, T/C (second compound 0.1 µM, first compound 0.01 µM): 81.8% | viability, T/C [10]: 85.5% | viability, T/C [11]: 85.7% | viability, T/C (second compound 0.316 µM, first compound 0.000316 µM): 89.8% | viability, T/C (second compound 0.316 µM, first compound 0.001 µM): 88.2% | viability, T/C (second compound 0.316 µM, first compound 0.00316 µM): 91.8% | viability, T/C (second compound 0.316 µM, first compound 0.01 µM): 86.7% | viability, T/C [12]: 84.6% | viability, T/C [13]: 85.3% | viability, T/C (second compound 1 µM, first compound 0.000316 µM): 106% | viability, T/C (second compound 1 µM, first compound 0.001 µM): 102% | viability, T/C (second compound 1 µM, first compound 0.00316 µM): 104% | viability, T/C (second compound 1 µM, first compound 0.01 µM): 102% | viability, T/C [14]: 102% | viability, T/C [15]: 94.7%

CCCS(=O)(=O)Nc1ccc(F)c(C(=O)c2c[nH]c3ncc(-c4ccc(Cl)cc4)cc23)c1F + CCN1CCN(Cc2ccc(Nc3ncc(F)c(-c4cc(F)c5nc(C)n(C(C)C)c5c4)n3)nc2)CC1
IC50 [1]: 4.38 µM | IC50 [2]: 4.19 µM | IC50 [3]: 4.32 µM | IC50 [4]: 4.67 µM | IC50 [5]: 5.52 µM | viability, T/C [6]: 96.9% | viability, T/C [7]: 103% | viability, T/C (second compound 0.01 µM, first compound 0.316 µM): 99.1% | viability, T/C (second compound 0.01 µM, first compound 1 µM): 97.4% | viability, T/C (second compound 0.01 µM, first compound 3.16 µM): 67% | viability, T/C (second compound 0.01 µM, first compound 10 µM): 8.02% | viability, T/C [8]: 95.3% | viability, T/C [9]: 100% | viability, T/C (second compound 0.0316 µM, first compound 0.316 µM): 98.6% | viability, T/C (second compound 0.0316 µM, first compound 1 µM): 92.4% | viability, T/C (second compound 0.0316 µM, first compound 3.16 µM): 64.4% | viability, T/C (second compound 0.0316 µM, first compound 10 µM): 5.43% | viability, T/C [10]: 90.8% | viability, T/C [11]: 87.6% | viability, T/C (second compound 0.1 µM, first compound 0.316 µM): 87.1% | viability, T/C (second compound 0.1 µM, first compound 1 µM): 82.5% | viability, T/C (second compound 0.1 µM, first compound 3.16 µM): 66.4% | viability, T/C (second compound 0.1 µM, first compound 10 µM): 6.9% | viability, T/C [12]: 92.4% | viability, T/C [13]: 89.5% | viability, T/C (second compound 0.316 µM, first compound 0.316 µM): 87.8% | viability, T/C (second compound 0.316 µM, first compound 1 µM): 79.9% | viability, T/C (second compound 0.316 µM, first compound 3.16 µM): 71.7% | viability, T/C (second compound 0.316 µM, first compound 10 µM): 11.4% | viability, T/C [14]: 106% | viability, T/C [15]: 97.4% | viability, T/C (second compound 1 µM, first compound 0.316 µM): 102% | viability, T/C (second compound 1 µM, first compound 1 µM): 104% | viability, T/C (second compound 1 µM, first compound 3.16 µM): 87.1% | viability, T/C (second compound 1 µM, first compound 10 µM): 10.3%

Cn1ncnc1[C@H]1c2n[nH]c(=O)c3cc(F)cc(c23)N[C@@H]1c1ccc(F)cc1
viability, T/C (compound 0.000316 µM): 94% and 104% | viability, T/C (compound 0.001 µM): 101% and 102% | viability, T/C (compound 0.00316 µM): 88% and 103% | viability, T/C (compound 0.01 µM): 91.7% and 96.2% | viability, T/C (compound 0.0316 µM): 90.2% and 96.4% | viability, T/C (compound 0.1 µM): 82.2% and 95.2% | IC50 (curve of compound): > 0.1 µM
